Results on three molecules are retold here after patent US8334266B2, “Process for and intermediates in the preparation of canfosfamide and its salts” (Telik, Inc., priority 2004, dated 2012).

Broadly, the IC50 is the midpoint of a concentration-inhibition curve.

Counter-ions that a name gives are not always drawn.

Data set [1] deals with ovarian, breast, non-small cell lung, and colorectal cancers. The settings on record: cited from earlier work.
Data set [2] concerns HL-60 (promyeloid myelocytic leukemia). As for the experimental part: (§1) The human cancer cell lines HL-60 (promyeloid myelocytic leukemia) and MX-1 (breast carcinoma) were obtained from the National Cancer Institute, Bethesda, Md., U.S.A. The CellTiter-Glo assay kit was obtained from Promega Corporation, Madison, Wis., U.S.A, and was used in accordance with the manufacturer's directions. All assays were conducted in triplicate wells, with dimethyl sulfoxide (DMSO) solvent control. The extent of cell growth was expressed as a percentage of the signal from the solvent control wells.
(§2) Log-phase cells were trypsinized, collected by centrifugation, and resuspended in a small volume of fresh medium, and the density of viable cells was determined following Trypan Blue staining. Cells were diluted in fresh media (5×10^3 cells/mL for HL-60 and 3×10^3 cells/mL for MX-1 cells), Compound 4A (concentrations between 0.1 and 200 μM, dissolved in DMSO, 50 μL) added immediately after dilution to achieve a final DMSO concentration of 0.5%, then the suspensions added at 150 μL/well to 96-well plates, and incubated for several hours to allow attachment in the case of adherent cells. The cells were cultured for approximately three doubling times (3 days). The cells were then collected by centrifugation, and 100 μL of the culture supernatant was replaced by the CellTiter-Glo reagent. After incubation for 15 minutes at room temperature, and the plate was read with a luminometer.

The test system of a further data set is MX-1 (breast carcinoma). The following applies: MX-1, cultured 3 days, CellTiter-Glo. As for the experimental part: as §1, §2
Data set [3] concerns in vitro cell culture and tumor biopsies. The following applies: cited from earlier work.
In data set [4] the test system is MCF-7 human breast carcinoma cell line selected for resistance to cyclophosphamide. The following applies: resistant line overexpresses GST P1-1; cited from earlier work.
Data set [5] relates to M7609 engineered to have high, medium, and low levels of GST P1-1. The settings on record: murine xenografts; cited from earlier work.
Data set [6] deals with M6709 human colon carcinoma cell line selected for resistance to doxorubicin. The settings on record: resistant line overexpresses GST P1-1; cited from earlier work.

With `N[C@@H](CCC(=O)N[C@@H](CS(=O)(=O)CCOP(=O)(N(CCCl)CCCl)N(CCCl)CCCl)C(=O)N[C@@H](C(=O)O)c1ccccc1)C(=O)O` [Canfosfamide hydrochloride], in data set [1] (patients treated), the hematological toxicity entry was “very low incidence of clinically significant hematological toxicity”. In addition, the antitumor activity entry in data set [1] (single agent, colorectal and breast cancer) was “single agent antitumor activity”. For the same molecule, the “antitumor activity and survival” value in data set [1] (single agent, patients with non-small cell lung cancer and ovarian cancer) was “significant single agent antitumor activity and improvement in survival”.

With `O=C(CC[C@H](NC(=O)OCc1ccccc1)C(=O)O)N[C@@H](CS(=O)(=O)CCOP(=O)(N(CCCl)CCCl)N(CCCl)CCCl)C(=O)N[C@@H](C(=O)O)c1ccccc1` [Compound 4A, N-α-(benzyloxycarbonyl)-L-γ-glutamyl-3-[[2-[[bis[bis(2-chloroethyl)amino]phosphinyl]oxy]-ethyl]sulfonyl]-L-alanyl-2-phenyl-(2R)-glycine], the IC50 was determined as 2.2 µM in data set [2] (HL-60, cultured 3 days, CellTiter-Glo) and 34.6 µM in the data set with MX-1 (breast carcinoma). The “potency compared with canfosfamide” value in data set [2] (in this assay (HL-60 and MX-1 cell lines)) is given as “approximately as potent as canfosfamide”.

Regarding `N[C@@H](CCC(=O)N[C@@H](CS(=O)(=O)CCOP(=O)(N(CCCl)CCCl)N(CCCl)CCCl)C(=O)N[C@@H](C(=O)O)c1ccccc1)C(=O)O` [canfosfamide, L-γ-glutamyl-3-[[2-[[bis[bis(2-chloroethyl)amino]phosphinyl]oxy]ethyl]sulfonyl]-L-alanyl-2-phenyl-(2R)-glycine], the “cross-resistance to platinum, paclitaxel, doxorubicin and gemcitabine” value in data set [3] is recorded as “non-cross-resistant”. The “potency relative to parental cell line” value in data set [4] and in data set [6] was “more potent” throughout. In data set [5], the “potency in relation to GST P1-1 level” value is on record as “positively correlated with the level of GST P1-1”.
